pIC50: −log10 of the molar value. Structures can show the parent of a compound that is named as a salt. Where two headings read alike, the source gives them in different places.
Key:
[1] = target: T1, hRIPK1 (aa 1-375) fusion protein (Homo sapiens, UniProt Q13546); assay: ADP-Glo kinase assay, RIPK1 autophosphorylation; type: biochemical
T1 construct: hRIPK1 (aa 1-375) fusion protein
T1 sequence (Q13546 1-375): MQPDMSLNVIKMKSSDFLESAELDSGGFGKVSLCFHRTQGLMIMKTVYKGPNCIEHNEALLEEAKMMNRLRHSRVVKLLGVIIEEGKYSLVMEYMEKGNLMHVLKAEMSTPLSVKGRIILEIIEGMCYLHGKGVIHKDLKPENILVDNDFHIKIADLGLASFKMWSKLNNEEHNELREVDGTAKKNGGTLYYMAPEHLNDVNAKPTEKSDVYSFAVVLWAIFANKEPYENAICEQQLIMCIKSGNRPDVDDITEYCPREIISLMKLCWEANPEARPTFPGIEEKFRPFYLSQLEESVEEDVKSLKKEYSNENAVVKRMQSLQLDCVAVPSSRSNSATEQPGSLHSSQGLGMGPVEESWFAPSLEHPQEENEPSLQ
Description: Evaluation of Receptor-Interacting Protein Kinase 1 Inhibition.
The catalytic activity of RIPK1 was measured by monitoring the conversion of Adenosine triphosphate (ATP) to Adenosine diphosphate (ADP) due to autophosphorylation using an ADP-Glo kinase kit (Promega, catalog no. V9104).
After another 240 minutes incubation at room temperature, 5 μl Promega ADP-Glo reagent I were added to quench the reaction and deplete unconsumed ATP. After an incubation period of 30 minutes, 10 μl Promega ADP-Glo detection reagent II were added resulting in conversion of ADP to ATP, which generates a light-reaction between luciferase and luciferin. Luminescence was quantified after 30 minutes with a Pherastar FS (BMG LABTECH, Ortenberg).
The adjustment was obtained by nonlinear regression using the Levenberg Marquardt algorithm.

U937 cells = assay: Cellular assay in U937 cells on cell death (necroptosis), TNFα/zVAD.fmk; type: cell-based; details: for pIC50: read-out: U937 IC50
From the text: Cellular Assay in U937 Cells to Measure the Activity of RIPK1-Inhibitors on Cell Death (Necroptosis).
Cell death was quantified in 96 well plates by determination of the amount of live cell using a CellTiter 96 AQueous reagent (Promega), a calorimetric method to measure the amount of live cells by reducing tetrazolium compound [3-(4,5-dimethylthiazol-2-yl)-5-(3-carboxymethoxyphenyl)-2-(4-sulfophenyl)-2H-tetrazolium, inner salt; MTS] into formazan. Absorbance of formazan was read at 490 nm. The inhibitory activity of the test compound was quantified in a concentration response curve (CRC) experiment. Compounds were obtained as 10 mM stock solutions and were diluted 1 to 10 volumes with DMSO to yield a 1 mM solution. From this solution 2 μl were diluted with 998 μl growth medium. 100 μl of 2 μM compound solution was further diluted sequentially with a dilution factor of 2.5 by adding 150 μl growth medium. A total of 10 concentrations were tested ranging from 10 μM to 0.26 nM or from 1 μM to 0.07 nM.
U937 cells were cultured in RPMI1640 Glutamax and 10% heat inactivated FBS. 50 μl cell suspension containing 1×10^6 cells/ml supplemented with 50 μM zVAD.fmk (Benzyloxycarbonyl-Val-Ala-Asp (OMe) fluoromethylketone) and 100 ng/ml recombinant human TNFα were dispensed in each well of a 96-well plate. 50 μl of compound dilutions (see above) were added and the cell suspension incubated overnight (18 to 24 hours) at 37° C., 5% CO2 in a humidified atmosphere (95% rH). High (no compound) and low control (no TNFα, zVAD.fmk) were tested with 7 replicates; all compound concentrations were tested in duplicates on each experimental plate.
CellTiter 96 Aqueous reagent was mixed (100 μl PMS (phenazine methosulfate) solution/2 ml MTS (3-(4,5-[…])-5-(3-carboxymethoxyphenyl)-2-(4-sulfophenyl)-2H-tetrazolium, inner salt) solution) and 20 μl were added per well. After 4 hours incubation at 37° C. (5% CO2 95% rH) optical density was measured at 490 nm on a microplate reader (Tecan Infinite M1000).
The % inhibition is expressed as percentage of the maximal inhibition value obtained in the absence of TNFα/zVAD.fmc.

## COC(=O)c1ccnc(N2CCC(C(=O)N3OCC[C@H]3c3cncc(C#N)c3)CC2)n1 [Ex. 010, Methyl 2-[4-[(3S)-3-(5-cyano-3-pyridyl)isoxazolidine-2-carbonyl]-1-piperidyl]pyrimidine-4-carboxylate]
[1]; Table 1
  pIC50: 7.92
U937 cells; Table 2, listed as 10
  pIC50: 6.68

## N#Cc1cncc([C@@H]2CCON2C(=O)C2CCN(c3nccc(C#N)n3)CC2)c1 [Ex. 011]
[1]; Table 1
  pIC50: 7.61
U937 cells; Homo sapiens, U-937, Table 2
  pIC50: 7.90

## CC1(C(=O)N2OCC[C@H]2c2cncc(C#N)c2)CCN(c2nccc(C(N)=O)n2)CC1 [Ex. 019]
[1]; Table 1
  pIC50: 7.63
U937 cells; Homo sapiens, U-937, Table 2
  pIC50: 7.24

## COC(=O)c1ccnc(N2CCC(C)(C(=O)N3OCC[C@H]3c3cncc(C#N)c3)CC2)n1 [Ex. 020, Methyl 2-[4-[(3S)-3-(5-cyano-3-pyridyl)isoxazolidine-2-carbonyl]-4-methyl-1-piperidyl]pyrimidine-4-carboxylate]
[1]; Table 1
  pIC50: 7.97
U937 cells; Homo sapiens, U-937, Table 2
  pIC50: 6.93

## CC1(C(=O)N2OCC[C@H]2c2cncc(C#N)c2)CCN(c2nccc(C(=O)O)n2)CC1 [Ex. 021]
[1]; Table 1
  pIC50: 7.15
U937 cells; Homo sapiens, U-937, Table 2
  pIC50: < 5.00

## N#Cc1cncc([C@@H]2CCON2C(=O)C2CCN(c3cc(C(N)=O)ccn3)CC2)c1 [Ex. 026]
[1]; Table 1
  pIC50: 7.20
U937 cells; Homo sapiens, U-937, Table 2
  pIC50: 5.72

## N#CCOc1nc(N2CCC(C(=O)N3OCC[C@H]3c3cncc(C#N)c3)CC2)ncc1F [Ex. 028]
[1]; Table 1
  pIC50: 7.76
U937 cells; Homo sapiens, U-937, Table 2
  pIC50: 8.98

## N#Cc1cncc([C@@H]2CCON2C(=O)C2CCN(c3ncc(F)c(OCC(=O)O)n3)CC2)c1 [Ex. 033, 2-[2-[4-[(3S)-3-(5-Cyano-3-pyridyl)isoxazolidine-2-carbonyl]-1-piperidyl]-5-fluoro-pyrimidin-4-yl]oxyacetic acid TFA salt]
[1]; Table 1
  pIC50: 6.29
U937 cells; Homo sapiens, U-937, Table 2
  pIC50: < 5.00

## N#Cc1cncc([C@@H]2CCON2C(=O)C2CCN(c3ncc(F)c(OCC(N)=O)n3)CC2)c1 [Ex. 035]
[1]; Table 1
  pIC50: 7.18
U937 cells; Homo sapiens, U-937, Table 2
  pIC50: 6.74

## N#Cc1cncc([C@@H]2CCON2C(=O)C2CCN(c3ncc(F)c(N)n3)CC2)c1 [Ex. 039]
[1]; Table 1
  pIC50: 7.30
U937 cells; Homo sapiens, U-937, Table 2
  pIC50: 6.74

## Cc1cncc([C@@H]2CCON2C(=O)C2CCN(c3nccc(C(N)=O)n3)CC2)n1 [Ex. 044]
[1]; Key compound table 4
  pIC50: 8.05
U937 cells; Homo sapiens, U-937, Key compound table 4, read-out: U937 IC50 (uM) Mean
  IC50: 0.009 µM

## Cc1cncc([C@@H]2CCON2C(=O)C2CCN(c3nccc(C#N)n3)CC2)n1 [Ex. 045]
[1]; Table 1
  pIC50: 7.76
U937 cells; Homo sapiens, U-937, Table 2
  pIC50: 7.18

## Cc1cnc(N2CCC(C(=O)N3OCC[C@H]3c3cncc(C#N)c3)CC2)nc1C(N)=O [Ex. 053]
[1]; Table 1
  pIC50: 7.93
U937 cells; Homo sapiens, U-937, Table 2
  pIC50: 7.25

## NC(=O)c1ccnc(N2CCC(C(=O)N3OCC[C@H]3c3cncc(N4CCC4=O)c3)CC2)n1 [Ex. 055]
[1]; Table 1
  pIC50: 7.00
U937 cells; Homo sapiens, U-937, Table 2
  pIC50: 6.07

## N#Cc1ccnc(N2CCC(C(=O)N3OCC[C@H]3c3cncc(N4CCC4=O)c3)CC2)n1 [Ex. 056, 2-[4-[(3S)-3-[5-(2-Oxoazetidin-1-yl)-3-pyridyl]isoxazolidine-2-carbonyl]-1-piperidyl]pyrimidine-4-carbonitrile]
[1]; Table 1
  pIC50: 7.37
U937 cells; Homo sapiens, U-937, Table 2
  pIC50: 5.66

## CCOC(=O)c1ncnc(N2CCC(C(=O)N3OCC[C@H]3c3cncc(C#N)c3)CC2)c1F [Ex. 057, Ethyl 6-[4-[(3S)-3-(5-cyano-3-pyridyl)isoxazolidine-2-carbonyl]-1-piperidyl]-5-fluoro-pyrimidine-4-carboxylate]
[1]; Table 1
  pIC50: 7.51
U937 cells; Homo sapiens, U-937, Table 2
  pIC50: 6.96

## N#Cc1cncc([C@@H]2CCON2C(=O)C2(F)CCN(c3ncc(F)c(C(N)=O)n3)CC2)c1 [Ex. 059]
[1]; Table 1
  pIC50: 7.68
U937 cells; Homo sapiens, U-937, Table 2
  pIC50: 7.29

## CC1(C(=O)N2OCC[C@H]2c2cncnc2)CCN(c2nccc(C(N)=O)n2)CC1 [Ex. 061]
[1]; Table 1
  pIC50: 7.41
U937 cells; Homo sapiens, U-937, Table 2
  pIC50: 6.59

## COc1nc(N2CCC(C(=O)N3OCC[C@H]3c3cncnc3)CC2)ncc1F [Ex. 064]
[1]; Table 1
  pIC50: 7.69
U937 cells; Homo sapiens, U-937, Table 2
  pIC50: 7.19

## N#Cc1ccnc(N2CCC(C(=O)N3OCC[C@H]3c3cncnc3)CC2)c1 [Ex. 065]
[1]; Table 1
  pIC50: 7.18
U937 cells; Homo sapiens, U-937, Table 2
  pIC50: 6.21

## N#Cc1cncc([C@@H]2CCON2C(=O)C2CCN(c3cnc(C#N)cn3)CC2)c1 [Ex. 066]
[1]; Table 1
  pIC50: 7.45
U937 cells; Homo sapiens, U-937, Table 2
  pIC50: 6.69

## N#Cc1cncc([C@@H]2CCON2C(=O)C2CCN(c3cncc(C#N)n3)CC2)c1 [Ex. 067]
[1]; Table 1
  pIC50: 7.07
U937 cells; Homo sapiens, U-937, Table 2
  pIC50: 6.26
